Laboratory results: patent publication US20150315218A1, “SALTS OF PRODRUGS OF PIPERAZINE AND SUBSTITUTED PIPERIDINE ANTIVIRAL AGENTS” (Bristol-Myers Squibb Company, priority 2004, published 2015)
“Also recorded” adds a separate entry of the source. Counter-ions that a name gives are not always drawn. Like-named read-outs stand apart in the source and are kept apart here.

Assays:
[1] = IV and PO pharmacokinetic studies of prodrug salts (Iab, Ibb, Icb) in the dog, with historical parent data; type: in vivo, beagle dogs; conditions: plasma; for concentration at 24 hr: read-out: C-24 hr; for Cmax: read-out: Cmax
Method: The IV and PO studies of Iab were conducted in a crossover fashion in three male beagle dogs (11±1.1 kg, Marshall Farms USA Inc., North Rose, N.Y.). There was a two-week washout period between the IV and PO studies.
(§1) In the IV study, Iab was infused via the cephalic vein at 1.2 mg/kg (free acid, or 0.95 mg/kg of IVa equivalent) over 5 min at a constant rate of 0.1 mL/kg/min. The concentration of the dosing solution was 2.4 mg/mL, and the dosing volume was 0.5 mL/kg. Serial blood samples were collected from the femoral artery before dosing and at 5, 10, 15, 30, 45 min, 1, 2, 4, 6, 8 and 24 hr after dosing.
In the PO study, the dogs were fasted overnight before dosing. Iab was administered by oral gavage at 6.6 mg/kg (free acid, or 5.2 mg/kg of IVa equivalent). The concentration of the dosing solution was 13.2 mg/mL, and the dosing volume was 0.5 mL/kg. Serial blood samples were collected before dosing and at 15, 30, 45 min, 1, 2, 4, 6, 8 and 24 hr after dosing.
The IV and PO studies of Ibb were conducted in male beagle dogs (10±0.78 kg, Marshall Farms USA Inc., North Rose, N.Y.). Three dogs were used in each study. Of the three dogs, two same dogs were used for both IV and PO studies. There was a two-week washout period between the IV and PO studies.
The concentration of the dosing solution was 2.6 mg/mL, and the dosing volume was 0.5 mL/kg. Serial blood samples were collected from the femoral artery before dosing and at 5, 10, 15, 30, 45 min, 1, 2, 4, 6, 8 and 24 hr after dosing.
In the PO study, the dogs were fasted overnight before dosing. […] The concentration of the dosing solution was 7.0 mg/mL, and the dosing volume was 1 mL/kg. Serial blood samples were collected before dosing and at 15, 30, 45 min, 1, 2, 4, 6, 8 and 24 hr after dosing.
The IV and PO studies of Icb were conducted in a crossover fashion in three male beagle dogs (12±2.8 kg, Marshall Farms USA Inc., North Rose, N.Y.). There was a two-week washout period between the IV and PO studies.
as §1, with “Icb” for “Iab”, “1.3” for “1.2”, “1.0” for “0.95”, “IVe” for “IVa”, “2.6” for “2.4”
In the PO study, the dogs were fasted overnight before dosing. […] The concentration of the dosing solution was 12 mg/mL, and the dosing volume was 0.5 mL/kg. Serial blood samples were collected before dosing and at 15, 30, 45 min, 1, 2, 4, 6, 8 and 24 hr after dosing.

[2] = Single-dose toxicokinetic and tolerability study of prodrugs in dogs; type: in vivo, dog; conditions: for concentration at 24 h: read-out: C24h
Method: A multi-phase study was conducted to evaluate the tolerability of the prodrug, Iab (monolysine salt) at dosages of 24, 90, or 240 mg/kg (free acid, molar equivalent to 19, 71, or 190 mg/kg of parent IVa, respectively) and the toxicokinetics of lab and IVa (4). Iab was administered to two female dogs/group once daily either as an aqueous solution (24 or 90 mg/kg) or dry-filled capsules (24, 90 [once and twice daily] or 240 mg/kg). The endpoints were: clinical signs, body weight, food consumption, and plasma toxicokinetics of lab and IVa. In all cases, a 1-week washout period was used between doses for all phases of the study. […]
On day 1, Icb was administered to one dog/sex/group once daily in dry-filled capsules at the above dosages. A 1-week washout period was used between doses in the study. On day 8, Icb was administered to one dog/sex/group once daily as an aqueous solution at 25 mg/kg or twice daily in dry-filled capsules at 46 or 125 mg/kg BID.

[3] = female, dog, plasma, 25 mg/kg, dog 2201F, day 8, Icb 25 mg/kg QD aqueous solution
[4] = female, dog, plasma, po, 25 mg/kg, dog 2201F, day 1, Icb 25 mg/kg (IVc equiv. 20) QD dry-filled capsules
[5] = female, dog, plasma, po, 46 mg/kg, dog 3201F, day 8, Icb 46 mg/kg BID dry-filled capsules
[6] = female, dog, plasma, po, 92 mg/kg, dog 3201F, day 1, Icb 92 mg/kg (IVc equiv. 75) QD dry-filled capsules
[7] = female, dog, plasma, po, 125 mg/kg, dog 4201F, day 8, Icb 125 mg/kg BID dry-filled capsules, emesis
[8] = female, dog, plasma, po, 250 mg/kg, dog 4201F, day 1, Icb 250 mg/kg (IVc equiv. 203) QD dry-filled capsules, emesis
[9] = male, dog, plasma, 25 mg/kg, dog 2101M, day 8, Icb 25 mg/kg QD aqueous solution
[10] = male, dog, plasma, po, 25 mg/kg, dog 2101M, day 1, Icb 25 mg/kg (IVc equiv. 20) QD dry-filled capsules
[11] = male, dog, plasma, po, 46 mg/kg, dog 3101M, day 8, Icb 46 mg/kg BID dry-filled capsules
[12] = male, dog, plasma, po, 92 mg/kg, dog 3101M, day 1, Icb 92 mg/kg (IVc equiv. 75) QD dry-filled capsules, emesis
[13] = male, dog, plasma, po, 125 mg/kg, dog 4101M, day 8, Icb 125 mg/kg BID dry-filled capsules, emesis
[14] = male, dog, plasma, po, 250 mg/kg, dog 4101M, day 1, Icb 250 mg/kg (IVc equiv. 203) QD dry-filled capsules, emesis

## COc1cnc(-n2cnc(C)n2)c2[nH]cc(C(=O)C(=O)N3CCN(C(=O)c4ccccc4)CC3)c12 [IVc]
[1]; beagle, historical parent, PO 5 mg/kg, read-out: Bioavailability (%)
  bioavailability: 89%
[1]; beagle, historical parent, PO 5 mg/kg, read-out: Tmax (hr), PO
  Tmax: 1.3 h
[1]; male, beagle, iv, 1.28 mg/kg, read-out: AUCtot
  AUC: 9.8 ± 3.6 µM·h
[1]; male, beagle, oral prodrug, read-out: Bioavailability (%) of parent from prodrug
  bioavailability: 104%
[1]; male, beagle, oral, 6.05 mg/kg, read-out: Bioavailability
  bioavailability: 104%
[1]; male, beagle, oral, 6.05 mg/kg
  concentration at 24 hr: 220 ± 160 nM
[1]; male, beagle, parent after oral prodrug (~5 mg/kg parent equivalent), read-out: Tmax (hr), PO
  Tmax: 0.58 h
[1]; male, beagle, po, 6.05 mg/kg, read-out: AUCtot
  AUC: 72 ± 27 µM·h
[1]; male, beagle, po, 6.05 mg/kg
  Cmax: 16 ± 3.9 µM
[1]; male, beagle, po, 6.05 mg/kg, read-out: Tmax
  Tmax: 0.58 ± 0.38 h
[1]; iv, 1 mg/kg, read-out: AUCtot
  AUC: 14 ± 2.5 µM·h
[1]; iv, 1 mg/kg, read-out: MRT
  MRT: 6.3 ± 1.9 h
[1]; iv, 1 mg/kg, read-out: Vdss
  Vd: 0.93 ± 0.14 L/kg
[1]; oral, 5 mg/kg
  concentration at 24 hr: 150 ± 27 nM
[1]; po, 5 mg/kg, read-out: AUCtot
  AUC: 63 ± 2.4 µM·h
[1]; po, 5 mg/kg, read-out: Bioavailability
  bioavailability: 89 ± 12%
[1]; po, 5 mg/kg
  Cmax: 9.6 ± 0.87 µM
[1]; po, 5 mg/kg, read-out: Tmax
  Tmax: 1.3 ± 0.58 h
[2]; dogs, BID dosing of prodrug
  time post-second dose at which mean Cmax of parent was achieved: 1 to 2 h
[2]; dogs, once daily (QD) dosing of prodrug
  time post-dose at which mean Cmax of parent was achieved: 1 to 2 h
[2]; [3]
  AUC(0-inf): 173 µM·h
  concentration at 24 h: 107 nM
[2]; female, dog, plasma, oral, 25 mg/kg, dog 2201F, day 1, Icb 25 mg/kg (IVc equiv. 20) QD dry-filled capsules
  concentration at 24 h: 688 nM
[2]; female, dog, plasma, oral, 25 mg/kg, dog 2201F, day 8, Icb 25 mg/kg QD aqueous solution
  Cmax: 46.8 µM
[2]; female, dog, plasma, oral, 46 mg/kg, dog 3201F, day 8, Icb 46 mg/kg BID dry-filled capsules
  concentration at 24 h: 307 nM
[2]; female, dog, plasma, oral, 92 mg/kg, dog 3201F, day 1, Icb 92 mg/kg (IVc equiv. 75) QD dry-filled capsules
  concentration at 24 h: 202 nM
[2]; female, dog, plasma, oral, 125 mg/kg, dog 4201F, day 8, Icb 125 mg/kg BID dry-filled capsules
  concentration at 24 h: 1960 nM
[2]; female, dog, plasma, oral, 250 mg/kg, dog 4201F, day 1, Icb 250 mg/kg (IVc equiv. 203) QD dry-filled capsules
  concentration at 24 h: 704 nM
[2]; [4]
  AUC(0-inf): 122 µM·h
  Cmax: 24.6 µM
[2]; [5]
  AUC(0-inf): 490 µM·h
  Cmax: 104 µM
[2]; [6]
  AUC(0-inf): 730 µM·h
  Cmax: 157 µM
[2]; [7]
  AUC(0-inf): 596 µM·h
  Cmax: 96.9 µM
[2]; [8]
  AUC(0-inf): 523 µM·h
  Cmax: 88.9 µM
[2]; [9]
  AUC(0-inf): 362 µM·h
  concentration at 24 h: 547 nM
[2]; male, dog, plasma, oral, 25 mg/kg, dog 2101M, day 1, Icb 25 mg/kg (IVc equiv. 20) QD dry-filled capsules
  concentration at 24 h: 8 nM
[2]; male, dog, plasma, oral, 25 mg/kg, dog 2101M, day 8, Icb 25 mg/kg QD aqueous solution
  Cmax: 59.4 µM
[2]; male, dog, plasma, oral, 46 mg/kg, dog 3101M, day 8, Icb 46 mg/kg BID dry-filled capsules
  concentration at 24 h: 10600 nM
[2]; male, dog, plasma, oral, 92 mg/kg, dog 3101M, day 1, Icb 92 mg/kg (IVc equiv. 75) QD dry-filled capsules
  concentration at 24 h: 1900 nM
[2]; male, dog, plasma, oral, 125 mg/kg, dog 4101M, day 8, Icb 125 mg/kg BID dry-filled capsules
  concentration at 24 h: 54200 nM
[2]; male, dog, plasma, oral, 250 mg/kg, dog 4101M, day 1, Icb 250 mg/kg (IVc equiv. 203) QD dry-filled capsules
  concentration at 24 h: 2610 nM
[2]; [10]
  AUC(0-inf): 365 µM·h
  Cmax: 65.1 µM
[2]; [11]
  AUC(0-inf): 1140 µM·h
  Cmax: 121 µM
[2]; [12]
  AUC(0-inf): 820 µM·h
  Cmax: 117 µM
[2]; [13]
  AUC(0-inf): 3780 µM·h
  Cmax: 226 µM
[2]; [14]
  AUC(0-inf): 739 µM·h
  Cmax: 92.6 µM

## COc1cnc(OC)c2c1c(C(=O)C(=O)N1CCN(C(=O)c3ccccc3)CC1)cn2COP(=O)(O)O [Iab, {3-[(4-benzoylpiperazin-1-yl)(oxo)acetyl]-4,7-dimethoxy-1H-pyrrolo[2,3-c]pyridin-1-yl}methyl dihydrogen phosphate, L-lysine salt (1:1)]
[1]; male, beagle, after IV prodrug (~1 mg/kg parent equivalent), analyte = label, read-out: AUCtot (μM · hr), IV
  AUC: 0.56 ± 0.12 µM·h
[1]; male, beagle, after IV prodrug, analyte = label, read-out: t1/2 (hr), IV (converted)
  half-life: 0.15 h
[1]; male, beagle, prodrug after IV administration, read-out: CLtot (mL/min/kg), IV
  clearance: 70 mL/min/kg
[1]; male, beagle, prodrug after IV administration, read-out: Vdss (L/kg), IV
  Vd: 0.3 L/kg
[2]; Dog #1201 (90 mg/kg Iab)
  percentage of estimated total dose lost in vomit: < 1%
[2]; Dog #2201 (240 mg/kg Iab)
  percentage of estimated total dose lost in vomit: ≈ 90%
[2]; Dog #2202 (240 mg/kg Iab)
  percentage of estimated total dose lost in vomit: ≈ 9%
[2]; dogs, oral prodrug
  clinical signs, body weight and food consumption: Other than emesis, there were no clinical signs observed, and there no effects on body weight and food consumption
  emesis: Emesis was observed at about 30 minutes after dosing in both dogs given 90 mg/kg; also recorded: Emesis was observed in Dogs #1201, #2201, and #2202 about 1 hour after dosing
[2]; female, dog, plasma, oral, dogs, 1 hour post dose, Iab 90-240 mg/kg phase, read-out: prodrug detected in plasma
  concentration at 1 h: 5 to 49 nM
[2]; female, dog, plasma, oral, dogs, 2 hours post dose, Iab 90-240 mg/kg phase, read-out: prodrug detected in plasma
  concentration at 2 h: 5 to 6 nM
[2]; initial phase, Iab 24 or 90 mg/kg
  prodrug in the plasma samples: not detected
